Measured values taken from PMC9316000, “Preclinical Drug Pharmacokinetic, Tissue Distribution and Excretion Profiles of the Novel Limonin Derivate HY-071085 as an Anti-Inflammatory and Analgesic Candidate in Rats and Beagle Dogs” (Pharmaceuticals, 2022).
Where two headings read alike, the source gives them in different places.

Key:
[1] = Pharmacokinetics after single-dose intravenous administration in rats; format: in vivo, Sprague Dawley rats; conditions: S-IV 3.25 mg/kg; for AUC(0-inf) / AUC / MRT / half-life: rat, plasma; for AUC: read-out: AUC0-tn
Procedure: The PK parameters after the intravenous administration of 3.25 mg/kg HY-071085 (before use, prepared with 5% DMSO + 95% normal saline mixture) are listed in Table 1.
In vivo PK profiling in the rats: Sprague Dawley rats (approximately 177–221 g in weight) were purchased from Shanghai Xipur-Bikai Experimental Animal Co., Ltd. (Shanghai, China). Before the experiment, several rats were randomly divided into several groups, half males and half females in each group, fasting but free to drink water for 12 h. The dosage of the rats was dependent on the drug pharmacology: the HY-071085 active pharmaceutical ingredients were administered with a dosage volume of 0.25 mL/100 g body weight. The whole-blood samples were centrifuged at 8000 rpm for 5 min, and the plasma samples were separated and stored at –80 °C until the analysis.
(§1) According to the obtained plasma concentration time data, the pharmacokinetic parameters were calculated using Phoenix WinNonlin 8.1 software. The pharmacokinetic parameters—i.e., the area under the curve (AUC), mean residence time (MRT), clearance rate (Cl/F) and steady-state apparent distribution volume (Vss/F)—were calculated by the method of moments, which was estimated according to the following formulae: AUCtn=∑Ci+Ci−1ti−ti−1/2 AUC∞=AUCtn+Cm/λ AUMCtn=∑tiCi+ti−1Ci−1ti−ti−1/2 AUMC∞=AUMCtn+Ctntn/λ+1/λ^2 MRT=AUMC∞/AUC∞ Cl/F=Dose/AUC Vss/F=Cl∗MRT where Ctn is the plasma concentration of tn at the last point after administration, and the elimination rate constant was obtained by ln(concentration) time linear regression.
(§2) Due to the drug having significant individual differences in rats, it could not be uniformly fitted with a PK atrioventricular model; as such, the pharmacokinetic parameters analyzed in this study were calculated using a non-atrioventricular model. The pharmacokinetic parameters are defined as follows: Cmax is the maximum blood concentration after administration and absorption, Tmax is the time required to reach Cmax, t1/2 is the time required to eliminate half of the plasma drug concentration after the drug distribution in the body reaches equilibrium, Cl/F is the apparent clearance rate, AUC0-tn is the area under the blood concentration time curve within the dosing interval, AUC0-∞ is the area under the plasma concentration time curve from 0 to infinity, MRT is the average time that all drug molecules stay in the body, and Vss/F is the steady-state apparent distribution volume, which is the product of the clearance rate and average residence time.

[2] = Pharmacokinetics after single-dose intragastric administration in beagle dogs; format: in vivo; conditions: both sexes, dog, plasma; for bioavailability: 1.25 mg/kg intragastric vs intravenous, from AUC0-∞, read-out: absolute oral bioavailability; for AUC: read-out: AUC0-tn; for Vd/F: read-out: Vss/F
Procedure: Male and female beagle dogs were administered low (1.25 mg/kg), medium (2.5 mg/kg) and high (5 mg/kg) doses of HY-071085 by gastric gavage, and blood samples were collected from the forelimb vein at various time points before and 8 h after administration in order to analyze the concentration of HY-071085 in the plasma. The profiles of the mean plasma concentration of HY-071085 versus time in dogs are presented in Figure 7, and the PK parameters are listed in Table 2. There was no gender difference in the pharmacokinetics in dogs (Figure 8). The AUCtn ratio for the three doses was 1:3.8:11.9, and the AUC0-∞ ratio between doses was 1:3.6:11.3, which was greater than the dose increase ratio (1:2:4), as shown in Figures S3 and S4.
(§3) In vivo PK profiling in dogs: Beagle dogs (approximately 8–10 kg in weight) were purchased from Jiangsu Yadong Experimental Animal Research Institute Co. Ltd (Nanjing, China). Before the experiment, several beagle dogs were randomly divided into several groups, half males and half females in each group. Four cycles of single-dose administration experiments were carried out, and the cleaning period was 3–5 days. Repeated-dose administration was carried out after the end of four cycles of single-dose administrations and cleaning periods. According to the dosage for the rats, the dosage for the beagle dogs was converted via the body surface area method. The HY-071085 active pharmaceutical ingredients were administered with a dosage volume of 2 mL/kg body weight. The whole-blood samples were centrifuged at 8000 rpm for 5 min, and the plasma samples were separated and stored at –80 °C until the analysis.
as §1, §2

[3] = Pharmacokinetics after single-dose intravenous administration in beagle dogs; format: in vivo; conditions: S-IV 1.25 mg/kg
Procedure: After the intravenous administration of 1.25 mg/kg HY-071085, there was also no gender difference for the plasma concentration time data in Figure 9.
as §3, §1, §2

[4] = Plasma protein binding, rat plasma; format: in vitro ADME; conditions: read-out: plasma protein binding rate (converted)
Procedure: The PPB rate in dogs was about 40% at different concentrations in the concentration range (50–400 ng/mL), and in rats it was about 75%. The PPB rate in human plasma varied greatly at different concentrations, ranging from 100% at a low drug concentration to 58% at a high drug concentration, as shown in Table 4.

[5] = design: method as in earlier work; conditions: cited from earlier work
[6] = design: method as in earlier work; conditions: Temp 25℃, pH 7.4; cited from earlier work
[7] = po, single-dose intragastric 2.5 mg/kg

Work on `CC1(C)OC2CC(=O)OCC23C1C/C(=N\OCCN1CCOCC1)C1(C)C3CC[C@@]2(C)[C@H](c3ccoc3)OC(=O)C3OC312` (stereo partly drawn) [HY-071085, (12S,12aS,E)-12-(furan-3-yl)-6,6,8a,12a-tetramethyl-8-((2-morpholinoethoxy)imino)dodecahydro-1H,3H-oxireno [2,3-d]pyrano [4’,3’:3,3a]isobenzofuro [5,4-f]isochromene-3,10(9aH)-dione] yielded an AUC(0-inf) ([1]; Sprague Dawley, female rats) of 684 ± 39.2 ng·h/mL, an AUC ([1]; Sprague Dawley, female rats) of 682 ± 225 ng·h/mL and an AUC(0-inf) ([1]; Sprague Dawley, male rats) of 740 ± 146 ng·h/mL. It also gave an MRT ([1]; Sprague Dawley, male rats) of 17.4 ± 2.4 min, an AUC ([1]; Sprague Dawley, male rats) of 739 ± 146 ng·h/mL and an MRT ([1]; Sprague-Dawley, female rats) of 20.4 ± 3 min. It also gave a half-life ([1]; Sprague-Dawley, female rats) of 20.4 ± 3 min, a half-life ([1]; Sprague-Dawley, male rats) of 24 ± 6 min and a Cl/F ([1]; female rats) of 79.3 ± 4.5 mL/min/kg. The Vss/F ([1]; female rats) was 1.63 ± 0.17 L/kg, the Cl/F ([1]; male rats) was 75 ± 11.8 mL/min/kg and the Vss/F ([1]; male rats) was 1.31 ± 0.18 L/kg. For the same compound, the bioavailability ([2]; oral) was 13.1%, the bioavailability ([2]; po) was about 13.1% and the AUC(0-inf) ([2]; po, S-IG 1.25 mg/kg) was 54.1 ± 25.4 ng·h/mL. It also gave a CL/F ([2]; po, S-IG 1.25 mg/kg) of 517 mL/min/kg, a Cmax ([2]; po, S-IG 1.25 mg/kg) of 37.9 ± 20.1 ng/mL and an MRT ([2]; po, S-IG 1.25 mg/kg) of 80.4 ± 31.8 min. It also gave a Tmax ([2]; po, S-IG 1.25 mg/kg) of 29.4 ± 25.8 min, a half-life ([2]; po, S-IG 1.25 mg/kg) of 52.8 ± 26.4 min and an AUC ([2]; po, S-IG 1.25 mg/kg) of 51.1 ± 24.9 ng·h/mL. For the same compound, the Vd/F ([2]; po, S-IG 1.25 mg/kg) was 35.3 ± 19.1 L/kg, the AUC(0-inf) ([2]; po, S-IG 5 mg/kg) was 610 ± 235 ng·h/mL and the CL/F ([2]; po, S-IG 5 mg/kg) was 156 mL/min/kg. For the same compound, the Cmax ([2]; po, S-IG 5 mg/kg) was 436 ± 206 ng/mL, the MRT ([2]; po, S-IG 5 mg/kg) was 87.6 ± 29.4 min and the Tmax ([2]; po, S-IG 5 mg/kg) was 41.4 ± 33 min. The half-life ([2]; po, S-IG 5 mg/kg) was 49.8 ± 7.8 min, the AUC ([2]; po, S-IG 5 mg/kg) was 606 ± 236 ng·h/mL and the Vd/F ([2]; po, S-IG 5 mg/kg) was 11.5 ± 6.03 L/kg. The AUC(0-inf) [2, 7] was 195 ± 90 ng·h/mL, the half-life [2, 7] was 49.8 ± 7.2 min and the Cl/F [3] was 51.2 ± 24.2 mL/min/kg. It also gave a Vss/F [3] of 2.07 ± 1.17 L/kg, an AUC(0-inf) ([3]; both sexes, dog, plasma) of 594 ± 538 ng·h/mL and a Cmax ([3]; both sexes, dog, plasma) of 1200 ± 1510 ng/mL. The MRT ([3]; both sexes, dog, plasma) was 37.2 ± 12 min, the Tmax ([3]; both sexes, dog, plasma) was 5.4 ± 1.8 min and the half-life ([3]; both sexes, dog, plasma) was 42 ± 5.4 min. The AUC ([3]; both sexes, dog, plasma, read-out: AUC0-tn) was 591 ± 539 ng·h/mL, the fraction unbound at 50 ng/mL ([4]; 50 ng/mL, mean) was 0.261 and the fraction unbound at 100 ng/mL ([4]; 100 ng/mL, mean) was 0.247. For the same compound, the fraction unbound at 200 ng/mL ([4]; 200 ng/mL, mean) was 0.228, the fraction unbound at 400 ng/mL ([4]; 400 ng/mL, mean) was 0.211 and the fraction unbound ([4]; rat, rats, concentration range 50–400 ng/mL) was about 0.25. For the same compound, the pKa [5] was 6.11 and the LogD [6] was 2.45.
